Assay results: publication PMC10175918 (Communications Biology, 2023)
Where two headings read alike, the source gives them in different places.

Assays:
Experiment in all cases: TGFα-shedding assay-based GPCR screening with chimeric Gα subunit proteins
Type in all cases: cell-based
[1] = target: T1, 348 GPCRs (Homo sapiens, UniProt Q9UKP6); conditions: 10µM, Favipiravir 100μM
T1 construct: expressed in transfected cells; host or cells: HEK293A
T1 sequence (Q9UKP6 1-389): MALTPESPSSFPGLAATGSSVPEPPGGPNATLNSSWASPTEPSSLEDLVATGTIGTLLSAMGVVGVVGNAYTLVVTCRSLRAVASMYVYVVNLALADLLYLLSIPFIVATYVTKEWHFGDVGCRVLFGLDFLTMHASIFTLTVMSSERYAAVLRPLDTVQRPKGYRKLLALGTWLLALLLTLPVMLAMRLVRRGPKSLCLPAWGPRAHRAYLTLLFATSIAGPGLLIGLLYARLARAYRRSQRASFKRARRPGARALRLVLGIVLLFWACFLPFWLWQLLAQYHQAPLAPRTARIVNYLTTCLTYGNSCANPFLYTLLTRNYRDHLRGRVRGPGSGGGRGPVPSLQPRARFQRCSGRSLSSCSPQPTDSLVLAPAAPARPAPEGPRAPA

[2] = target: T2, 348 GPCRs (Homo sapiens, UniProt Q86VZ1)
T2 construct: expressed in transfected cells; host or cells: HEK293A

[3] = target: T3, 348 GPCRs (Homo sapiens, UniProt Q9UNW8); conditions: G2A (GPR132); 10µM, Favipiravir 100μM
T3 construct: expressed in transfected cells; host or cells: HEK293A
T3 sequence (Q9UNW8 1-380): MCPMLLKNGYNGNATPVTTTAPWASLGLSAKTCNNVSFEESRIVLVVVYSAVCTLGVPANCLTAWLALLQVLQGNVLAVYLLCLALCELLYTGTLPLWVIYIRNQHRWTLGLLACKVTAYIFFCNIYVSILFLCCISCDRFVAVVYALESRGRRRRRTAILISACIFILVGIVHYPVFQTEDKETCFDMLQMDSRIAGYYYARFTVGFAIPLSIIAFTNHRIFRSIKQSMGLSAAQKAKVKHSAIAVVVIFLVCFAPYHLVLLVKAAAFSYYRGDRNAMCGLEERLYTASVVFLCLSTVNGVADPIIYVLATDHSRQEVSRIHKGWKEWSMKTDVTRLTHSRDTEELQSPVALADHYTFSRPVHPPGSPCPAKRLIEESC

[4] = target: T4, 348 GPCRs (Homo sapiens, UniProt P51685); conditions: 10µM, Favipiravir 100μM
T4 construct: expressed in transfected cells; host or cells: HEK293A

[5] = target: T5, 348 GPCRs (Homo sapiens, UniProt P34998)
T5 construct: expressed in transfected cells; host or cells: HEK293A
T5 sequence (P34998 24-415): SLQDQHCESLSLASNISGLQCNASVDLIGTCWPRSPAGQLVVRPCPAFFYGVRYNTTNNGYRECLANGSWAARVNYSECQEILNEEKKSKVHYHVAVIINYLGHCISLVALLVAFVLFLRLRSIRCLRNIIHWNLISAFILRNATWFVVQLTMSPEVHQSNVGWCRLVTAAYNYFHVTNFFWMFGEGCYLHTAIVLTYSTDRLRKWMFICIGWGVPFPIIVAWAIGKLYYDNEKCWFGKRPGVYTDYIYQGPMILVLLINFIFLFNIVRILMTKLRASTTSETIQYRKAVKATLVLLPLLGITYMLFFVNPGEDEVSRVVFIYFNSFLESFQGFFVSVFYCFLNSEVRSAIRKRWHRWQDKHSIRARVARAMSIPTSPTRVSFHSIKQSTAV

[6] = target: T6, 348 GPCRs (Homo sapiens, UniProt Q9NYW4); conditions: 10µM, Favipiravir 100μM
T6 construct: expressed in transfected cells; host or cells: HEK293A
T6 sequence (Q9NYW4 1-299): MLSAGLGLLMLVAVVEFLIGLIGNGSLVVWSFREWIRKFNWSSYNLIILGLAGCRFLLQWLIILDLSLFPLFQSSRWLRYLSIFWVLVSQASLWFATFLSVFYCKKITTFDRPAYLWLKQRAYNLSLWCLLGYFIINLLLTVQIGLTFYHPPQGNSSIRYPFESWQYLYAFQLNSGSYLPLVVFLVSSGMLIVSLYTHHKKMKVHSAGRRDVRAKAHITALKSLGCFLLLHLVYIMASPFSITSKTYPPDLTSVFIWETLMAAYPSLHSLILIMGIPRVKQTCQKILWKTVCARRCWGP

[7] = target: 348 GPCRs (Homo sapiens, UniProt P61073)
[8] = target: T7, 348 GPCRs (Homo sapiens, UniProt Q96RI8); conditions: 10µM, Favipiravir 100μM
T7 construct: expressed in transfected cells; host or cells: HEK293A
T7 sequence (Q96RI8 1-345): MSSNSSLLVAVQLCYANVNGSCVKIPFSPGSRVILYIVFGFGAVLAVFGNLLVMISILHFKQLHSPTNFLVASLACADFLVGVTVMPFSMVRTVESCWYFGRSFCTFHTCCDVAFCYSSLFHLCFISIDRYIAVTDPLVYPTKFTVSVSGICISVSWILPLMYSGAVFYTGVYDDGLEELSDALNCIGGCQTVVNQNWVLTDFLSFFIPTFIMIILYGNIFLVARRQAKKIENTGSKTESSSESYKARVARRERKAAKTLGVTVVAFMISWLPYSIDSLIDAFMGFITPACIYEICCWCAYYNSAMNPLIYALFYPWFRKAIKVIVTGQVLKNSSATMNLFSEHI

[9] = UTS2R (urotensin 2 receptor), read-out: % GPCR activation compared to TPA
[10] = GPCR P2Y8 (purinergic receptor P2Y, G-protein coupled, 8), read-out: % GPCR activation compared to TPA
[11] = CCR8 (C-C motif chemokine receptor 8), read-out: % GPCR activation compared to TPA
[12] = GPCR CRHR1 (corticotropin releasing hormone receptor 1), read-out: % GPCR activation compared to TPA
[13] = TAS2R5 (taste receptor, type 2, member 5), read-out: % GPCR activation compared to TPA
[14] = GPCR CXCR4 (chemokine (C-X-C motif) receptor 4), read-out: % GPCR activation compared to TPA
[15] = TAAR6 (trace amine associated receptor 6), read-out: % GPCR activation compared to TPA
[16] = read-out: % GPCR activation compared to TPA, UTS2R (urotensin 2 receptor)
[17] = read-out: % GPCR activation compared to TPA, GPCR P2Y8 (purinergic receptor P2Y, G-protein coupled, 8)
[18] = read-out: % GPCR activation compared to TPA, CCR8 (C-C motif chemokine receptor 8)
[19] = read-out: % GPCR activation compared to TPA, GPCR CRHR1 (corticotropin releasing hormone receptor 1)
[20] = read-out: % GPCR activation compared to TPA, TAS2R5 (taste receptor, type 2, member 5)
[21] = read-out: % GPCR activation compared to TPA, GPCR CXCR4 (chemokine (C-X-C motif) receptor 4)
[22] = read-out: % GPCR activation compared to TPA, TAAR6 (trace amine associated receptor 6)

T4 sequence (P51685 whole entry): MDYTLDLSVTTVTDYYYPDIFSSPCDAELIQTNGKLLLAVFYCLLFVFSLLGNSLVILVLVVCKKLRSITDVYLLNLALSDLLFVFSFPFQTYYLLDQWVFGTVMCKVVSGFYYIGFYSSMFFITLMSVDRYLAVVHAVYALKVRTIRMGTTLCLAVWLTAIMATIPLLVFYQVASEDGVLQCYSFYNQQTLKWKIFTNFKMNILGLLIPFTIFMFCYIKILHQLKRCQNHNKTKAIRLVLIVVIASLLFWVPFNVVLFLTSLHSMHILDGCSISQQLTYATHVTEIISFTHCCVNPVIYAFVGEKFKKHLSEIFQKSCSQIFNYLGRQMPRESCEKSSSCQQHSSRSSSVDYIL
T2 sequence (Q86VZ1 whole entry): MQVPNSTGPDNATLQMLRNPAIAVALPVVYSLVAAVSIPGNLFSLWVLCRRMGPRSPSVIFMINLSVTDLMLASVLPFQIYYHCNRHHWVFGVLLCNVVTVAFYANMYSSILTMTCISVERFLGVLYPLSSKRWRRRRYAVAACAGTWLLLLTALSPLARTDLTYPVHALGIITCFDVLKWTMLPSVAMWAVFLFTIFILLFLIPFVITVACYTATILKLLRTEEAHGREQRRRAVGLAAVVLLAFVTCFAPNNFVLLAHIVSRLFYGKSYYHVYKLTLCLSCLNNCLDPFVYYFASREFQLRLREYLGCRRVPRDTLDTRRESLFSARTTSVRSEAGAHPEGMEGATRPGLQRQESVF
Sequence of 348 GPCRs (Homo sapiens, UniProt P61073) (P61073 whole entry): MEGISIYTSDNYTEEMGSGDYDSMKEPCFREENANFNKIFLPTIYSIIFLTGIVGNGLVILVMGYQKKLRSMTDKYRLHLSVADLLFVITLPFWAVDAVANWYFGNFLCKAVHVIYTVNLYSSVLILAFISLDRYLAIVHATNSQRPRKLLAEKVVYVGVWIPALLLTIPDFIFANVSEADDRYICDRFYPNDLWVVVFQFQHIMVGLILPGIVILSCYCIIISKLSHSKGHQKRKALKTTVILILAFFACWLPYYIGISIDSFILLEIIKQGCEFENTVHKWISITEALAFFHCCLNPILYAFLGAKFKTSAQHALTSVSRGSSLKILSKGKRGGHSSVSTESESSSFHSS

activation at 10 µM [1, 9] [%]	activation at 10 µM [2, 10] [%]	% GPCR activation compared to TPA [3] [%]	activation at 10 µM [4, 11] [%]	activation at 10 µM [5, 12] [%]	activation at 100 µM [6, 13] [%]	activation at 10 µM [7, 14] [%]	activation at 100 µM [8, 15] [%]	activation at 100 µM ([2]; GPCR P2Y8 (purinergic receptor P2Y, G-protein coupled, 8), 100μM, read-out: % GPCR activation compared to TPA) [%]	activation at 100 µM ([5]; GPCR CRHR1 (corticotropin releasing hormone receptor 1), 100μM, read-out: % GPCR activation compared to TPA) [%]	activation at 100 µM ([7]; GPCR CXCR4 (chemokine (C-X-C motif) receptor 4), 100μM, read-out: % GPCR activation compared to TPA) [%]	SMILES	activation at 10 µM [1, 16] [%]	activation at 10 µM [2, 17] [%]	activation at 10 µM [4, 18] [%]	activation at 10 µM [5, 19] [%]	activation at 100 µM [6, 20] [%]	activation at 10 µM [7, 21] [%]	activation at 100 µM [8, 22] [%]
-11.4	1.71	-8.135	-5.03	0.467	0.212	-0.228	-1.31	–	–	–	N#C[C@@]1(c2ccc3c(N)ncnn23)O[C@H](CO)[C@@H](O)[C@H]1O [GS441524]	–	–	–	–	–	–	–
-4.11	–	7.4	-0.669	–	2.49	–	-1.51	1.7	-0.37	-0.773	NC(=O)c1nc(F)cnc1O [favipiravir, 6-fluoro-3-hydroxy-2-pyrazinecarboxamide]	–	–	–	–	–	–	–

Further lines, the molecule ahead of its results:

SMILES	activation at 10 µM [1, 9] [%]	activation at 10 µM [2, 10] [%]	% GPCR activation compared to TPA [3] [%]	activation at 10 µM [4, 11] [%]	activation at 10 µM [5, 12] [%]	activation at 100 µM [6, 13] [%]	activation at 10 µM [7, 14] [%]	activation at 100 µM [8, 15] [%]	activation at 100 µM ([2]; GPCR P2Y8 (purinergic receptor P2Y, G-protein coupled, 8), 100μM, read-out: % GPCR activation compared to TPA) [%]	activation at 100 µM ([5]; GPCR CRHR1 (corticotropin releasing hormone receptor 1), 100μM, read-out: % GPCR activation compared to TPA) [%]	activation at 100 µM ([7]; GPCR CXCR4 (chemokine (C-X-C motif) receptor 4), 100μM, read-out: % GPCR activation compared to TPA) [%]	activation at 10 µM [1, 16] [%]	activation at 10 µM [2, 17] [%]	activation at 10 µM [4, 18] [%]	activation at 10 µM [5, 19] [%]	activation at 100 µM [6, 20] [%]	activation at 10 µM [7, 21] [%]	activation at 100 µM [8, 22] [%]
CC(C)C(=O)OC[C@H]1O[C@@H](n2ccc(NO)nc2=O)[C@H](O)[C@@H]1O [molnupiravir]	-8.44	-9.1	-1.8016	-2.68	1.11	-0.247	-1.55	-2.31	–	–	–	–	–	–	–	–	–	–
CCC(CC)COC(=O)[C@H](C)N[P@](=O)(OC[C@H]1O[C@@](C#N)(c2ccc3c(N)ncnn23)[C@H](O)[C@@H]1O)Oc1ccccc1 [remdesivir]	–	–	10.99	–	–	–	–	–	–	–	–	46.9	6.38	0.425	2.05	3.92	1.64	-0.419
CC(C)OC(=O)[C@H](C)N[P@](=O)(OC[C@H]1O[C@@H](n2ccc(=O)[nH]c2=O)[C@](C)(F)[C@@H]1O)Oc1ccccc1 [sofosbuvir]	–	–	-1.375	–	–	–	–	–	–	–	–	-2.85	-3.86	-2.89	1.15	-1.2	1.3	-3.52
